Experimental data: patent US20080003606A1, “DIAGNOSIS OF TAMOXIFEN SENSITIVITY” (priority 2004, published 2008)

Tested on: ER positive invasive breast cancer
Assay: Randomized trial of 2 years of adjuvant tamoxifen vs no adjuvant treatment, survival analysed by cyclin D1/A2 expression and CCND1 amplification
Assay type: in vivo, human
Conditions: for Overall Survival RR / Recurrence Free Survival RR: Cox univariate, ER+, tamoxifen vs control (1.00)
Method: During 1984-1991, 564 premenopausal patients or patients under 50 years with stage 11 (pT2 N0 M0, pT1 N1 M0 and pT2, N1 M0) invasive breast cancer were enrolled in a randomized trial of 2 years of adjuvant tamoxifen treatment with a daily dosage of either 40 mg (study center 1) or 20 mg (study center 2) or no adjuvant treatment (detailed in [14]).
All available archived primary tumor specimens were collected (n=500). Areas with invasive cancer were marked on the H&E stained slides and two 0.6 mm tissue cores were taken from each donor block and mounted in a recipient block using an automated arrayer ((ATA-27, Beecher Inc, WI, USA).
For cyclin A2 expression, only the fraction of positively staining nuclei were calculated (405 cases) and subdivided into five groups based on the following score: 0 (0-1%), 1 (2-10%), 2 (11-25%), 3 (26-50%) and 4 (>50%). For cyclin D1, the nuclear fraction and intensity as well as the cytoplasmic staining intensity was evaluated (463 cases). The nuclear fractions were divided into the following five subgroups: 0 (0%), 1 (1-25%), 2 (26-50%), 3 (51-75%) and 4 (>75%). The nuclear and cytoplasmic intensity was evaluated as absent=0, weak=1, intermediate=2 and strong=3. The TMA:s had previously been analyzed immunohistochemically for estrogen- (ER) and progesterone (PR) receptor status (anti-ER Clone 6F11 and anti-PgR Clone 16) using the Ventana Benchmark system (Ventana Medical Systems Inc., AZ, USA). In line with the clinically established cut-off used for hormone receptor assessment, tumors with more than 10% positively staining nuclei were considered positive.
For fluorescence in situ (FISH) analysis of CCND1 gene amplification, two direct-labeled probes were used, LSI cyclin D1 (11q13) SpectrumOrange against CCND1 (11q13) and CEP 11 SpectrumGreen (Vysis Inc., Illinois, USA) against the centromere of chromosome 11. The FISH analysis was performed according to the standard protocol recommended by the manufacturer and according to “LSI® Locus Specific Identifier DNA probes” from Vysis Inc., Illinois. Briefly, tissue sections were de-paraffinized in xylene and alcohol and air-dried. The slides were then microwave-treated in Target Retrieval Solution pH 7.3 (DAKO A/S, Glostrup, Denmark) for 5+5 minutes and treated with 100 μl pepsin (Digest-All 3, Zymed, California, USA) for 8 minutes in 37° C. and washed in water. The de-paraffinized slides were denatured in 70% formamide/2×SSC at 73° C. for 5 minutes followed by dehydration in graded ethanol. A denatured mixture of 1 μl LSI probe, 2 μl pH2O and 7 μl LSI hybridization buffer was added on each slide and incubated at 37° C. overnight. The slides were then washed with 0.4×SSC/0.3% Nonidet P40 at 37±1° C. for 2 minutes followed by a 2×SSC/0.1% NP40 wash at ambient temperature for 1 minute to remove non-specifically bound probe.
For evaluation, the CCND1 gene was considered amplified when the ratio of orange/green was >1. Non-amplified cases were classified as 0, cases with up to 10 copies as 1 and >10 copies as 2.
Baseline prognostic and patient characteristics between the original study group, patients with available FISH data (n=280) and patients without FISH data (n=284) were compared using the chi-square test to exclude the possibility of selection bias. Baseline prognostic and patients characteristics were also compared between amplified and non-amplified cases using the same approach as well as the marker distribution according to trial arm. For evaluation of treatment response, only tumors with >10% ER positivity were included. Kaplan-Meier and log-rank tests and univariate Cox regression analyses were used for recurrence free survival (RFS), breast cancer survival (BCS) and overall survival (OS).

[1] = Multivariate Cox model with A2 NF and interaction variable, adjusted for age, tumor size, NHG, Ki-67 and nodal status
[2] = Multivariate Cox model with CCND1 amplification and interaction variable, adjusted for age, tumor size, NHG, Ki-67 and nodal status
[3] = Multivariate Cox model with D1 NF and interaction variable, adjusted for age, tumor size, NHG, Ki-67 and nodal status
[4] = Multivariate Cox model with D1 NI and interaction variable, adjusted for age, tumor size, NHG, Ki-67 and nodal status
[5] = Multivariate Cox model, adjusted for age, tumor size, NHG, Ki-67 and nodal status

## CC/C(=C(\c1ccccc1)c1ccc(OCCN(C)C)cc1)c1ccccc1 [tamoxifen]
CCND1-amplified tumors without high cyclin D1 protein intensity or >50% cyclin D1 positive cells
  tamoxifen effect: clear adverse tamoxifen effect
CCND1 amplified
  Overall Survival RR: 2.13
  Recurrence Free Survival RR: 2.22
CCND1 not amplified
  Overall Survival RR: 0.43
  Recurrence Free Survival RR: 0.39
Cyclin A2 nf <10%
  Overall Survival RR: 0.72
  Recurrence Free Survival RR: 0.51
Cyclin A2 nf >10%
  Overall Survival RR: 0.92
  Recurrence Free Survival RR: 0.86
Cyclin D1 nf <25%
  Overall Survival RR: 0.65
  Recurrence Free Survival RR: 0.62
Cyclin D1 nf >25%
  Overall Survival RR: 0.78
  Recurrence Free Survival RR: 0.61
Cyclin D1 ni high
  Overall Survival RR: 0.77
  Recurrence Free Survival RR: 0.84
Cyclin D1 ni low/intermediate
  Overall Survival RR: 0.72
  Recurrence Free Survival RR: 0.59
[1]
  Overall survival RR, Treatment tamoxifen vs control: 0.64
  Recurrence free survival RR, Treatment tamoxifen vs control: 0.46
[2]
  Overall survival RR, Treatment tamoxifen vs control: 0.41
  Recurrence free survival RR, Treatment tamoxifen vs control: 0.37
[3]
  Overall survival RR, Treatment tamoxifen vs control: 0.67
  Recurrence free survival RR, Treatment tamoxifen vs control: 0.62
[4]
  Overall survival RR, Treatment tamoxifen vs control: 0.78
  Recurrence free survival RR, Treatment tamoxifen vs control: 0.62
[5]
  Overall survival RR, Interaction variable tamoxifen × A2 nf: 1.40
  Overall survival RR, Interaction variable tamoxifen × CCND1: 5.85
  Overall survival RR, Interaction variable tamoxifen × D1 nf: 1.29
  Overall survival RR, Interaction variable tamoxifen × D1 ni: 1.00
  Recurrence free survival RR, Interaction variable tamoxifen × A2 nf: 1.93
  Recurrence free survival RR, Interaction variable tamoxifen × CCND1: 6.26
  Recurrence free survival RR, Interaction variable tamoxifen × D1 nf: 0.98
  Recurrence free survival RR, Interaction variable tamoxifen × D1 ni: 1.27
Node positive patients, CCND1-amplified tumors
  difference in treatment response, multivariate interaction variable: more then nine-fold
Node positive patients, amplified tumors, treated arm (untreated 68%)
  10 year RFS: 13%
Patients with CCND1-amplified tumors, multivariate interaction analyses
  difference in tamoxifen treatment effect: 6-9 fold
Patients with amplified tumors, tamoxifen treated arm (untreated 62%)
  10 years RFS: 29%
Patients with amplified tumors, tamoxifen treated arm (untreated 74%)
  10 years OS: 56%
Patients with non-amplified tumors, treatment arm (control 44%)
  proportional 10-year recurrence free survival (RFS): 74%
Patients with non-amplified tumors, treatment arm (control 61%)
  10-year overall survival (OS): 78%
Tumors with >10% positive cyclin A2 nuclei
  tamoxifen response: lack of response
Tumors with less than 10% positive cyclin A2 nuclei
  tamoxifen response: responded well
Tumors with strong nuclear cyclin D1 staining intensity
  tamoxifen response regarding recurrence free survival (RFS): did not respond
